# According to patent publication US5965533A, “Atrial natriuretic peptide (ANP) as an additive to peritoneal dialysis solutions” (Baxter International Inc., priority 1997, dated 1999):
# Legend:
# rats = test: Intraperitoneally administered ANP in peritoneal dialysis solution, transport characteristics in rats, 4 hour dwell; assay type: in vivo, rat
# Description: A first experiment was performed to assess the effect of intraperitoneal administered ANP on peritoneal dialysis transport characteristics in rats. In this study, a dose of 9 μg ANP/kg BW of rat was mixed in a base solution of 2.5% dextrose DIANEAL® solution. The rats were injected with 90 ml/kg BW of either the above solution with the ANP additive or an unaltered control DIANEAL® solution.
# Blood samples were taken before and after the 4 hour dwell period. Dialysate samples were collected at the start of the dwell and every 2 hours thereafter. All samples were analyzed for urea nitrogen (UN), sodium (Na), glucose, protein (prtn), and osmolality (Osm). At the end of the 4 hour dwell period, the rats were sacrificed, the abdominal walls excised, and the effluents collected and weighed.
# To prepare the above ANP solution, 250 cc of DIANEAL® PD-2 solution was transferred into a 250 ml empty bag (VIAFLEX®). 10 cc of DIANEAL® PD-2 solution was injected into a vial containing […] of ANF (atrial natriuretic factor--yANF,rat,28AA sold by Peninsula Laboratories, Inc.). 1.25 cc of the DIANEAL®/ANF solution was then withdrawn with a needle and syringe and injected into the 250 ml bag containing the DIANEAL® base solution through a 0.22 μm sterile filter. The bag was then enclosed with a sampling site coupler. The control solution was similarly transferred into a new 250 ml bag (VIAFLEX®) and enclosed with a sampling site coupler.
# sheep = test: ANP in 4.25% dextrose DIANEAL peritoneal dialysis solution in conscious sheep, 6 hour dwell; assay type: in vivo; details: mean, n = 5
# Description: In a second experiment performed on sheep, ANP was added to a 4.25% dextrose DIANEAL® solution to provide a final concentration of ANP in the solution of […]. The dialysis solution was then infused into the peritoneal cavity of the sheep in 50 ml/kg BW volumes. The dwell time periods were 6 hours; the sheep remained conscious.
# wherein pl. vol. is plasma volume; Vo is the volume of the peritoneal cavity before the commencement of the dialysis; V6 is the volume of the peritoneal cavity after six hours; LFR is lymph flow rate; Bl. rec. is blood recovery; and PC rec. is peritoneal cavity recovery.
# [1] = ANP as additive versus control DIANEAL solution, Table 1 and FIGS. 1 and 2
# [2] = rat, protein, 9 μg ANP/kg BW, 4 hour, mean ± SD
# [3] = rat, urea nitrogen, 9 μg ANP/kg BW, 4 hour, mean ± SD
# [4] = ANP 1×10^31 7 M in 4.25% dextrose DIANEAL
substance,measurement,setting,value
atrial natriuretic peptide [ANP],effect on net ultrafiltration (in words),rats; [1],increases
same,effect on sodium clearance (in words),rats; [1],increases
same,nUF (net ultrafiltration),"rats; rat, 9 μg ANP/kg BW in 2.5% dextrose DIANEAL, 90 ml/kg BW i.p., 4 hour dwell, mean ± SD",8.17 ± 0.52 mL
same,Osm (osmolality),"rats; rat, 9 μg ANP/kg BW in 2.5% dextrose DIANEAL, 4 hour sample, mean ± SD",308.0 ± 3.5 mOsm/kg
same,D/D0 (glucose),"rats; rat, glucose, 9 μg ANP/kg BW, 4 hour, mean ± SD",0.363 ± 0.024
same,Clearance (prtn),rats; [2],1.379 ± 0.117 µL/min
same,D/P (prtn),rats; [2],0.0106 ± 0.0009
same,Clearance (Na),"rats; rat, sodium, 9 μg ANP/kg BW, 4 hour, mean ± SD",0.1110 ± 0.0027 mL/min
same,Clearance (UN),rats; [3],0.106 ± 0.005 mL/min
same,D/P (UN),rats; [3],0.81 ± 0.04
same,Fl. loss,sheep; [4],13.39 mL/kg
same,LFR (lymph flow rate),sheep; [4],6.45 mL/kg
same,NUF (net ultra filtration),sheep; [4],22.05 mL/kg
same,PC rec. (peritoneal cavity recovery),sheep; [4],82.12%
same,Total rec.,sheep; [4],93.81%
same,V6 (volume of the peritoneal cavity after six hours),sheep; [4],0.07246 L/kg
same,pl. vol. (plasma volume),"sheep; ANP in 4.25% dextrose DIANEAL, 50 ml/kg BW",52.70 mL/kg
same,Bl. rec. (blood recovery),sheep; ANP in 4.25% dextrose DIANEAL,11.69%
